Kd data for 1 molecule are collected here from article PMC7770649 (iScience, 2020).

This assay addresses TPI (triosephosphate isomerase), recombinant. The assay is described as follows: isothermal titration calorimetry. Format: binding. To be noted: 100 μM TPI, 1 mM palmitic amide; DMSO control. Background: ITC needs no label: the signal is the heat of the interaction.

The term Kd denotes the equilibrium constant for the complex coming apart. For `CCCCCCCCCCCCCCCC(N)=O` [palmitic amide], the dissociation constant Kd was found to be 4.89 ± 1.23 µM.
